# Measured values taken from ChEMBL document CHEMBL3045228, “QSAR study of a series of acyl coenzyme A (CoA): cholesterol acyltransferase inhibitors using genetic function approximation” (Med Chem Res, 2011).
# Assay: Inhibition of Acyl-coenzyme A:cholesterol acyltransferase (unknown origin) assessed as intracellular cholesterol esterification by cell based assay
# Conditions: Homo sapiens; read-out: IC50
row,IC50,SMILES
1,270 nM,CC(C)CCCC(C)N(Cc1ccc(CC(C)C)cc1)C(Nc1ccc(N(C)C)cc1)=C1C(=O)OC(C)(C)OC1=O (stereo not drawn)
2,410 nM,CCCCCCOc1ccc(NC(=C2C(=O)OC(C)(C)OC2=O)N(Cc2ccc(CC(C)C)cc2)C(C)CCCCC)cc1 (stereo not drawn)
3,350 nM,CCCCCC(C)N(Cc1ccc(CC(C)C)cc1)C(Nc1ccc(N(C)C)cc1C)=C1C(=O)OC(C)(C)OC1=O (stereo not drawn)
4,260 nM,CCCCCC(C)N(Cc1ccc(CC(C)(C)C)cc1)C(Nc1ccc(N(C)C)cc1C)=C1C(=O)OC(C)(C)OC1=O (stereo not drawn)
5,700 nM,COc1cc(OC)c(NC(NCCCCCCCCc2ccc(CC(C)(C)C)cc2)=C2C(=O)OC(C)(C)OC2=O)c(OC)c1
6,540 nM,CCCCC(CC)N(Cc1ccc(CC(C)(C)C)cc1)C(Nc1ccc(OC)cc1OC)=C1C(=O)OC(C)(C)OC1=O (stereo not drawn)
7,160 nM,CCCCCC(C)N(Cc1ccc(CCC(C)C)cc1)C(Nc1ccc(N(C)C)cc1C)=C1C(=O)OC(C)(C)OC1=O (stereo not drawn)
8,190 nM,CCCCC(CC)N(Cc1ccc(CC(C)(C)C)cc1)C(Nc1ccc(N(C)C)cc1)=C1C(=O)OC(C)(C)OC1=O (stereo not drawn)
9,90 nM,CCCCCC(C)N(Cc1ccc(OCC(C)C)cc1)C(Nc1ccc(N(C)C)cc1)=C1C(=O)OC(C)(C)OC1=O (stereo not drawn)
10,490 nM,CCCCCC(C)N(Cc1ccc(CC(C)(C)C)cc1)C(Nc1ccc(C)cc1C)=C1C(=O)OC(C)(C)OC1=O (stereo not drawn)
11,2300 nM,COc1ccc(NC(NCCCCCCCCCCCc2ccc(C(C)(C)C)cc2)=C2C(=O)OC(C)(C)OC2=O)c(OC)c1
12,2800 nM,COc1cc(NC(NCCCCCCCCc2ccc(C(C)(C)C)cc2)=C2C(=O)OC(C)(C)OC2=O)cc(OC)c1OC
13,1300 nM,CC(C)CCc1ccc(CN(C(Nc2ccc(N(C)C)cc2)=C2C(=O)OC(C)(C)OC2=O)C(CC(C)C)CC(C)C)cc1
14,240 nM,CC(C)(C)Cc1ccc(CCCCCCCNC(Nc2cc(C(C)(C)C)c(O)c(C(C)(C)C)c2)=C2C(=O)OC(C)(C)OC2=O)cc1
15,1100 nM,CN(C)c1ccc(NC(NCCCCCCCCc2ccc(C(C)(C)C)cc2)=C2C(=O)OC(C)(C)OC2=O)cc1
16,1500 nM,COc1ccc(NC(NCCCCCCCCc2ccc(OCCC(C)C)cc2)=C2C(=O)OC(C)(C)OC2=O)c(OC)c1
17,3500 nM,COc1cc(NC(NCCCCCCCCc2ccc(OCCC(C)C)cc2)=C2C(=O)OC(C)(C)OC2=O)cc(OC)c1OC
18,690 nM,CCCCOc1ccc(NC(=C2C(=O)OC(C)(C)OC2=O)N(Cc2ccc(C(C)(C)C)cc2)C(C)CCCC(C)C)cc1 (stereo not drawn)
19,230 nM,COc1ccc(NC(=C2C(=O)OC(C)(C)OC2=O)N(Cc2ccc(C(C)(C)C)cc2)C(C)CCCC(C)C)c(OC)c1 (stereo not drawn)
20,5200 nM,CC(C)Cc1ccc(CN(C(Nc2ccc(N(C)C)cc2)=C2C(=O)OC(C)(C)OC2=O)C(C)CCCC(C)(C)O)cc1 (stereo not drawn)
21,680 nM,CCCCCc1ccc(CN(C(Nc2ccc(N(C)C)cc2C)=C2C(=O)OC(C)(C)OC2=O)C(C)CCCCC)cc1 (stereo not drawn)
22,3000 nM,COc1ccc(NC(NCCCCCCCCc2ccc(CCC(C)C)cc2)=C2C(=O)OC(C)(C)OC2=O)c(OC)c1
23,1300 nM,COc1ccc(NC(=C2C(=O)OC(C)(C)OC2=O)N(Cc2ccc(CCC(C)C)cc2)C(CC(C)C)CC(C)C)c(OC)c1
24,530 nM,COc1ccc(NC(=C2C(=O)OC(C)(C)OC2=O)N(Cc2ccc(CC(C)C)cc2C)C(CO[SiH](C)C)CC(C)C)c(OC)c1 (stereo not drawn)

# Same assay, conditions: Homo sapiens; read-out: pIC50 (converted)
row,IC50,SMILES
1,270 nM,CC(C)CCCC(C)N(Cc1ccc(CC(C)C)cc1)C(Nc1ccc(N(C)C)cc1)=C1C(=O)OC(C)(C)OC1=O (stereo not drawn)
2,410 nM,CCCCCCOc1ccc(NC(=C2C(=O)OC(C)(C)OC2=O)N(Cc2ccc(CC(C)C)cc2)C(C)CCCCC)cc1 (stereo not drawn)
3,350 nM,CCCCCC(C)N(Cc1ccc(CC(C)C)cc1)C(Nc1ccc(N(C)C)cc1C)=C1C(=O)OC(C)(C)OC1=O (stereo not drawn)
4,260 nM,CCCCCC(C)N(Cc1ccc(CC(C)(C)C)cc1)C(Nc1ccc(N(C)C)cc1C)=C1C(=O)OC(C)(C)OC1=O (stereo not drawn)
5,700 nM,COc1cc(OC)c(NC(NCCCCCCCCc2ccc(CC(C)(C)C)cc2)=C2C(=O)OC(C)(C)OC2=O)c(OC)c1
6,540 nM,CCCCC(CC)N(Cc1ccc(CC(C)(C)C)cc1)C(Nc1ccc(OC)cc1OC)=C1C(=O)OC(C)(C)OC1=O (stereo not drawn)
7,160 nM,CCCCCC(C)N(Cc1ccc(CCC(C)C)cc1)C(Nc1ccc(N(C)C)cc1C)=C1C(=O)OC(C)(C)OC1=O (stereo not drawn)
8,640 nM,CCCCC(CC)N(Cc1ccc(CC(C)(C)C)cc1)C(Nc1ccc(N(C)C)cc1)=C1C(=O)OC(C)(C)OC1=O (stereo not drawn)
9,89.9 nM,CCCCCC(C)N(Cc1ccc(OCC(C)C)cc1)C(Nc1ccc(N(C)C)cc1)=C1C(=O)OC(C)(C)OC1=O (stereo not drawn)
10,490 nM,CCCCCC(C)N(Cc1ccc(CC(C)(C)C)cc1)C(Nc1ccc(C)cc1C)=C1C(=O)OC(C)(C)OC1=O (stereo not drawn)
11,2300 nM,COc1ccc(NC(NCCCCCCCCCCCc2ccc(C(C)(C)C)cc2)=C2C(=O)OC(C)(C)OC2=O)c(OC)c1
12,2800 nM,COc1cc(NC(NCCCCCCCCc2ccc(C(C)(C)C)cc2)=C2C(=O)OC(C)(C)OC2=O)cc(OC)c1OC
13,1300 nM,CC(C)CCc1ccc(CN(C(Nc2ccc(N(C)C)cc2)=C2C(=O)OC(C)(C)OC2=O)C(CC(C)C)CC(C)C)cc1
14,240 nM,CC(C)(C)Cc1ccc(CCCCCCCNC(Nc2cc(C(C)(C)C)c(O)c(C(C)(C)C)c2)=C2C(=O)OC(C)(C)OC2=O)cc1
15,1100 nM,CN(C)c1ccc(NC(NCCCCCCCCc2ccc(C(C)(C)C)cc2)=C2C(=O)OC(C)(C)OC2=O)cc1
16,1500 nM,COc1ccc(NC(NCCCCCCCCc2ccc(OCCC(C)C)cc2)=C2C(=O)OC(C)(C)OC2=O)c(OC)c1
17,3500 nM,COc1cc(NC(NCCCCCCCCc2ccc(OCCC(C)C)cc2)=C2C(=O)OC(C)(C)OC2=O)cc(OC)c1OC
18,690 nM,CCCCOc1ccc(NC(=C2C(=O)OC(C)(C)OC2=O)N(Cc2ccc(C(C)(C)C)cc2)C(C)CCCC(C)C)cc1 (stereo not drawn)
19,230 nM,COc1ccc(NC(=C2C(=O)OC(C)(C)OC2=O)N(Cc2ccc(C(C)(C)C)cc2)C(C)CCCC(C)C)c(OC)c1 (stereo not drawn)
20,5200 nM,CC(C)Cc1ccc(CN(C(Nc2ccc(N(C)C)cc2)=C2C(=O)OC(C)(C)OC2=O)C(C)CCCC(C)(C)O)cc1 (stereo not drawn)
21,242 nM,CCCCCc1ccc(CN(C(Nc2ccc(N(C)C)cc2C)=C2C(=O)OC(C)(C)OC2=O)C(C)CCCCC)cc1 (stereo not drawn)
22,3000 nM,COc1ccc(NC(NCCCCCCCCc2ccc(CCC(C)C)cc2)=C2C(=O)OC(C)(C)OC2=O)c(OC)c1
23,1300 nM,COc1ccc(NC(=C2C(=O)OC(C)(C)OC2=O)N(Cc2ccc(CCC(C)C)cc2)C(CC(C)C)CC(C)C)c(OC)c1
24,530 nM,COc1ccc(NC(=C2C(=O)OC(C)(C)OC2=O)N(Cc2ccc(CC(C)C)cc2C)C(CO[SiH](C)C)CC(C)C)c(OC)c1 (stereo not drawn)
